Measurements from US10189863B2, “5,6-dihydro-4H-benzo[b]thieno-[2,3-d]azepine derivatives” (PULMOCIDE LIMITED, priority 2014, dated 2019).
pIC50: −log10 of the molar value.

Key:
RSV B Washington strain = experiment: Assessment of RSV induced CPE in HEp2 cells (RSV B Washington strain); type: cell-based; settings: human respiratory syncytial virus, HEp2 cells; for pIC50: HEp-2, 144 h, 1 MOI, 6 days, read-out: RSV B CPE IC50; for inhibition at 0.1 µg/mL / inhibition at 1 µg/mL: HEp-2; for inhibition at 0.1 µg/mL: Inhibition (%) at 0.1 μg/mL; for inhibition at 1 µg/mL: Inhibition (%) at 1 μg/mL, read-out: RSV B CPE % Inhibition
How it was run: (§1)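 HEp2 cells were infected at MOI 1 with RSV A2 or RSV B Washington, with compound added at the same time (0.5% DMSO final). Incubation was 5 days for A2 and 6 days for B, then viability was read by resazurin fluorescence (545/590 nm) after 6 h. IC50, IC75 and IC90 came from concentration-response curves.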

[1] = Cell viability: resazurin assay; type: cell-based, human; settings: human, HEp2 cells
How it was run: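 HEp2 cells in 5% FBS DMEM exposed to compounds (0.5% DMSO final) for 5 days at 37 °C/5% CO2, then resazurin added for 6 h; fluorescence read at 545/590 nm. Percent viability loss calculated versus 0.5% DMSO vehicle, with increases shown as negative values; CC50 taken from concentration-response curves where appropriate.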

RSV A2 strain = experiment: Assessment of RSV induced CPE in HEp2 cells (RSV A2 strain); type: cell-based; settings: human respiratory syncytial virus, HEp2 cells; for pIC50: HEp-2, 120 h, 1 MOI, 5 days, read-out: RSV A2 CPE IC50; for inhibition at 0.01 µg/mL / inhibition at 0.1 µg/mL: HEp-2; for inhibition at 0.01 µg/mL: Inhibition (%) at 0.01 μg/mL; for inhibition at 0.1 µg/mL: Inhibition (%) at 0.1 μg/mL, read-out: RSV A2 CPE % Inhibition
How it was run: as §1

[2] = test system: RSV A2 F-protein expression in BEAS2B bronchial epithelial cells; experiment: Assessment of RSV F protein expression in BEAS2B bronchial epithelial cells; type: cell-based; settings: human respiratory syncytial virus, BEAS-2B, 72 h, read-out: RSV A2 F-protein IC50 (nM)
Method: Assessment of RSV F Protein Expression in BEAS2B Bronchial Epithelial Cells
An early event which follows the infection of epithelial cells by RSV is the expression of RSV F-protein on the cells' surface. BEAS2B cells (SV40-immortalised human bronchial epithelial cell line) were grown in 96 well plates. Once more than 70% confluent, cells were infected with RSV A2 (#0709161v, NCPV, Public Health England, Wiltshire) at an MOI of 0.01 in clear RPMI-1640 medium (Life technologies, Paisley, UK) with 2% FBS (Life technologies, Paisley, UK), and incubated for 3 days (37° C./5% CO2).
Supernatant was aspirated and the cells were fixed with 4% formaldehyde (100 μL in PBS solution) for 20 min, washed 3 times with washing buffer (200 μL; PBS containing 0.05% Tween-20) and incubated with blocking solution (100 μL; 5% Marvel milk in PBS) for 1 hr. Cells were then washed with washing buffer (200 μL) and incubated for 1 hr at 37° C. with anti-RSV (2F7; mouse monoclonal, lot 160290, Cat. No. ab43812, Abcam plc, Cambridge, UK) F-fusion protein antibody (50 μL; prepared at a 1:1000 dilution in 5% milk/PBS-tween). After washing, cells were incubated with an HRP-conjugated anti-mouse IgG antibody (50 μL prepared at a 1:2000 dilution in 5% milk in PBS; lot 00095437, Cat.No. P0447, Dako UK Ltd, Cambridgeshire, UK) for 1 hr. Cells were washed twice with washing buffer and once with PBS. TMB substrate (100 μL; substrate reagent pack lot 320436, Cat. No. DY999, R&D Systems, Inc. Abingdon, UK) was then added and the reaction was stopped by the addition of aq sulfuric acid (50 μL; 2N). The resultant signal was determined colourimetrically (OD: 450 nm with a reference wavelength of 655 nm) in a microplate reader (Multiskan FC®, ThermoFisher Scientific). Cells were then washed and 1% crystal violet solution (50 μL; lot SLB4576, Cat. No. HT90132-1L, Sigma-Aldrich) was applied for 30 min. After washing with PBS (200 μL) 3 times, 1% SDS (100 μL) was added to each well, and plates were shaken lightly for 1 hr prior to reading the absorbance at 595 nm. The measured OD450-655 readings were corrected for cell number by dividing the OD450-655 by the OD595 readings. The percentage inhibition for each well was calculated and the IC50 value derived from the concentration-response curve generated for each test compound.

Row | Structure (SMILES) | pIC50 (RSV B Washington strain) | inhibition at 0.1 µg/mL (RSV B Washington strain) [%] | CC50 at 5 days [1] [nM] | pIC50 (RSV A2 strain) | inhibition at 0.01 µg/mL (RSV A2 strain) [%] | IC50 [2] [nM] | inhibition at 1 µg/mL (RSV B Washington strain) [%] | inhibition at 0.1 µg/mL (RSV A2 strain) [%]
1 | O=C(Nc1c(F)cccc1Cl)c1cc2c(s1)-c1ccccc1N(C(=O)c1ccc(NC(=O)c3cc4c(nc3N3CC5(CCOCC5)C3)CCCC4)cc1)CC2 [Example 81, 6-(4-(2-(7-oxa-2-azaspiro[3.5]nonan-2-yl)-5,6,7,8-tetra-hydroquinoline-3-carboxamido)benzoyl)-N-(2-chloro-6-fluorophenyl)-5,6-dihydro-4H-benzo[b]thieno[2,3-d]azepine-2-carboxamide] | 7.99 | 100 | > 12900 | 9.74 | 77 | 0.13 | – | –
2 | Cc1cccc(F)c1NC(=O)c1cc2c(s1)-c1ccccc1N(C(=O)c1ccc(NC(=O)c3cc4c(nc3N3CC5(CCOCC5)C3)CCC4)cc1)CC2 [Example 8, 6-(4-(2-(7-Oxa-2-azaspiro[3.5]nonan-2-yl)-6,7-dihydro-5H-cyclopenta[b]pyridine-3-carboxamido)benzoyl)-N-(2-fluoro-6-methylphenyl)-5,6-dihydro-4H-benzo[b]thieno[2,3-d]azepine-2-carboxamide] | 8.89 | 100 | > 13500 | 9.57 | 88 | 0.13 | – | –
3 | O=C(Nc1c(F)cccc1Cl)c1cc2c(s1)-c1ccccc1N(C(=O)c1ccc(NC(=O)c3cc4ccccc4nc3N3CC4(CCOCC4)C3)cc1)CC2 [Example 87, 6-(4-(2-(7-oxa-2-azaspiro[3.5]nonan-2-yl)quinoline-3-carboxamido)benzoyl)-N-(2-chloro-6-fluorophenyl)-5,6-di-hydro-4H-benzo[b]thieno[2,3-d]azepine-2-carboxamide] | 7.80 | 100 | > 12900 | 9.27 | 94 | 0.49 | – | –
4 | O=C(Nc1c(F)cccc1F)c1cc2c(s1)-c1ccccc1N(C(=O)c1ccc(NC(=O)c3cc4c(nc3N3CC5(CCOCC5)C3)CCC4)cc1)CC2 [Example 75, 6-(4-(2-(7-oxa-2-azaspiro[3.5]nonan-2-yl)-6,7-dihydro-5H-cyclopenta[b]pyridine-3-carboxamido)benzoyl)-N-(2,6-difluorophenyl)-5,6-dihydro-4H-benzo[b]thieno[2,3-d] azepine-2-carboxamide] | 8.64 | – | > 13400 | 10.00 | 84 | 0.25 | 100 | –
5 | Cc1ccccc1NC(=O)c1cc2c(s1)-c1ccccc1N(C(=O)c1ccc(NC(=O)c3cccnc3N3CC4(CCOCC4)C3)cc1)CC2 [Example 14, 6-(4-(2-(7-oxa-2-azaspiro[3.5]nonan-2-yl)nicotinamido)benzoyl)-N-(o-tolyl)-5,6-dihydro-4H-benzo[b]thieno[2,3-d] azepine-2-carboxamide] | 7.26 | – | > 14600 | 9.19 | – | 0.41 | 92 | 100
6 | Cc1cnc(N2CC3(CCOCC3)C2)c(C(=O)Nc2ccc(C(=O)N3CCc4cc(C(=O)Nc5c(F)cccc5Cl)sc4-c4ccccc43)cc2)c1 [Example 39, N-(2-chloro-6-fluorophenyl)-6-(4-(5-methyl-2-(7-oxa-2-azaspiro[3.5]nonan-2-yl)nicotinamido)benzoyl)-5,6-dihydro-4H-benzo[b]thieno[2,3-d]azepine-2-carboxamide] | 7.76 | – | > 13600 | > 10.85 | – | 0.057 | 77 | 100
